Laboratory results published in US10160977B2, “Super-enhancers and methods of use thereof” (Whitehead Institute for Biomedical Research, priority 2012, dated 2018).
Where a name gives a salt, the structure may show the parent alone.

Assays:
HL60 cells = conditions: read-out: IC50, growth of HL60 cells; cited from earlier work
pause release = assay: Inhibition of pause release; type: cell-based
Source text: It has undergone clinical trials in a number of different cancer types including various solid tumors and leukemias. […] Without wishing to be bound by theory, this may help counteract the effects of Myc overexpression, and this may be the basis for the therapeutic effect of flavopiridol on some tumors.

[1] = tested on: various tumor cells lines; conditions: cited from earlier work
xenograft models = conditions: in vivo; cited from earlier work
c-Myc [2] = biological target: T1, c-Myc (Homo sapiens, UniProt P01106); conditions: cited from earlier work
T1 sequence (P01106 whole entry): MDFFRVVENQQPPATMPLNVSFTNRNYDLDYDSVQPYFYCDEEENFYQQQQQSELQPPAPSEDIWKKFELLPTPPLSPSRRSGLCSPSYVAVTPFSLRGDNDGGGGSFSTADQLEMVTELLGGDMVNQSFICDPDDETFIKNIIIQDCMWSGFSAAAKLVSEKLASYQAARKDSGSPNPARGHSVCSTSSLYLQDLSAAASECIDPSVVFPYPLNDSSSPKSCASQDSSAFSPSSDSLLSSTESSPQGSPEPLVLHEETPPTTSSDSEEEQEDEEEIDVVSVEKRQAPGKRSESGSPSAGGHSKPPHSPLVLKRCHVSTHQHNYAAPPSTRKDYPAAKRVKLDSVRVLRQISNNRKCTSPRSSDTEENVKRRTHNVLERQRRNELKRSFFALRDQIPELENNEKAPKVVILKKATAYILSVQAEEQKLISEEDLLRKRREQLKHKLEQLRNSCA

MM.1S cells = assay: JQ1 sensitivity of MM.1S cells by measurement of ATP levels (CellTiterGlo); type: cell-based, human
Source text: (§1) Schematic depicting the experimental procedure.

c-MYC [3] = assay: Western blot of c-MYC protein levels after JQ1 or DMSO treatment; type: cell-based, human; conditions: MM.1S cells, 6 hours of JQ1 treatment
Source text: as §1

P-TEFb = assay: ChIP-Seq of P-TEFb occupancy in MM.1S cells after JQ1 treatment; type: cell-based, human
Source text: FIGS. 9(A)-9(C) illustrate that loss of P-TEFb accompanies BRD4 inhibition. (FIG. 9A) P-TEFb generally occupies enhancers bound by Mediator and BRD4 in MM1.S cells. […] (FIG. 9C) P-TEFb is disproportionally lost at super-enhancers.
BRD4 recruits the active form of the positive transcription elongation factor P-TEFb, which stimulates pause release and transcription elongation (Bisgrove et al., 2007; Hargreaves et al., 2009; Jang et al., 2005; Jiang et al., 1998; Wu and Chiang, 2007; Wu et al., 2003; Yang et al., 2005). […] Furthermore, P-TEFb was disproportionately lost at super-enhancers when compared to normal enhancers (FIG. 9C). We conclude that BET bromodomain inhibition of BRD4 leads to loss of P-TEFb at enhancers and transcription start sites, and that the inhibition has more profound effects at super-enhancers than at average enhancers.

RNA Polymerase II = assay: ChIP-seq of RNA Polymerase II after JQ1 treatment (transcription elongation); type: cell-based, human; conditions: MM.1S cells
Source text: (FIG. 10B) Genes associated with super-enhancers show a dramatic defect in elongation.

c-Myc [4] = biological target: T1, c-Myc; conditions: cited from earlier work; remark: listed apart in the source
c-Myc/Max = c-Myc/Max (Homo sapiens, UniProt P01106); conditions: cited from earlier work
c-Myc/Max, sequence (P01106 whole entry): as above

c-Myc [5] = biological target: T1, c-Myc; conditions: at concentrations of 10-40 μM; cited from earlier work
[6] = tested on: chicken embryo fibroblasts; conditions: cited from earlier work

In the case of CCc1ccc(/C=C2/SC(=S)NC2=O)cc1 [10058-F4], the IC50 (HL60 cells) is given as 49 µM.

For CN1CC[C@H](c2c(O)cc(O)c3c(=O)cc(-c4ccccc4Cl)oc23)[C@H](O)C1 [Flavopiridol, (−)-2-(2-Chlorophenyl)-5,7-dihydroxy-8-[(3S,4R)-3-hydroxy-1-methyl-4-piperidinyl]-4H-1-benzopyran-4-one hydrochloride], the pause release (pause release) is listed as “inhibit pause release”, the “antitumor activity against various tumor cells lines” value [1] is listed as “antitumor activity” and the “tumor growth in xenograft models” value (xenograft models) is listed as “inhibit tumor growth”.

For CNC(=O)c1cc2c(cc1C(=O)NC[C@H](NS(=O)(=O)c1c(Cl)sc(Cl)c1Br)C(=O)OC(C)(C)C)CN(C(=O)CCC1CCN(C(=O)OC(C)(C)C)CC1)C2 [IIA6B17], the “inhibition of c-Myc-dependent transcription in a reporter gene assay” value (c-Myc [2]) is given as “inhibit”.

For Cc1sc2c(c1C)C(c1ccc(Cl)cc1)=N[C@@H](CC(=O)OC(C)(C)C)c1nnc(C)n1-2 [JQ1], the “MM1.S cell viability, as measured by ATP levels” value (MM.1S cells; 6 hour treatments, various concentrations of JQ1) was “little effect”, the “antiproliferative effect on MM1.S cells” value (MM.1S cells; later time points) was “dramatic antiproliferative effect” and the MYC protein levels (c-MYC [3]) was “significantly depleted”. The “levels of P-TEFb at sites where there was a reduction in BRD4” value (P-TEFb) was “reduce the levels of P-TEFb” and the “transcriptional elongation (PolII in the gene body and 3' transcription termination regions)” value (RNA Polymerase II) was “global defect in transcriptional elongation”.

For CN(C)CCCNc1cc(O)c2c(c1O)C(=O)c1ccccc1C2=O [MYRA-A], the Myc-regulated gene expression (c-Myc [4]) is listed as “inhibit” and the apoptosis (c-Myc [4]) is listed as “induce apoptosis in a Myc-dependent manner”.

For COc1ccc(CNC(=O)c2cc3nc(-c4cccs4)cc(C(F)(F)F)n3n2)cc1 [Mycro1], the “specificity for c-Myc-dependent transcription over transcription mediated by AP-1 family proteins” value (c-Myc [2]) is given as “weak-to-moderate specificity” and the “inhibition of c-Myc/Max dimerization” value (c-Myc/Max) is given as “inhibit”.

In the case of O=C(NCc1cccs1)c1cc2nc(-c3cccs3)cc(C(F)(F)F)n2n1 [Mycro2], the “specificity for c-Myc-dependent transcription over transcription mediated by AP-1 family proteins” value (c-Myc [2]) is listed as “weak-to-moderate specificity” and the “inhibition of c-Myc/Max dimerization” value (c-Myc/Max) is listed as “inhibit”.

In the case of CCOC(=O)c1cnn(-c2ccccc2)c1NC(=O)c1cc2nc(-c3cccs3)cc(C(F)(F)F)n2n1 [Mycro3], the “inhibition of c-Myc/Max dimerization” value (c-Myc/Max) is listed as “inhibited”, the “selectivity in vitro of inhibition of c-Myc/Max dimerization and DNA binding” value (c-Myc/Max; in vitro) is listed as “very good selectivity” and the “potency and selectivity against c-Myc in cellular assays” value (c-Myc [5]) is listed as “good potency and selectivity”.

In the case of COc1ccc(CN(C(=O)c2ccccn2)C(C(=O)NC2CCCCC2)c2ccc3cc(OCC(=O)OC(C)(C)C)ccc3c2)cc1 (stereo not shown) [NY2267], the “inhibition of c-Myc-dependent oncogenic transformation of chicken embryo fibroblasts” value ([6]; at 20 μM) is given as “strongly inhibited”, the “selectivity over transformation mediated by v-Src or v-Jun” value [6] is given as “showed selectivity” and the “discrimination between transcription mediated by c-Jun and c-Myc” value (c-Myc [2]) is given as “did not discriminate”.
